pIC50: −log10 of the molar value. Like-named read-outs stand apart in the source and are kept apart here.
Target: GCN2 (Homo sapiens, UniProt Q9P2K8)
Assay: GCN2 enzymatic endpoint assay: phosphorylation of GFP-eIF2α measured by TR-FRET (Lanthascreen)
Type: biochemical
Summary of the method: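 Kinase activity is measured as phosphorylation of GFP-labelled eIF2α (80 nM) with ATP at 2 μM. Incubation runs 90 minutes at room temperature before EDTA quench and terbium-antibody detection.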

[1] = tested as described in Example 77, compound and/or hydrochloride, dihydrochloride or trifluoroacetic acid salt, read-out: IC 50 Activity
[2] = GCN2 biochemical IC50, 4 nM GCN2, 2 μM ATP, 80 nM GFP-eIF2α, 90 min RT, read-out: GCN2 activity

Chain of GCN2 (Q9P2K8 whole entry): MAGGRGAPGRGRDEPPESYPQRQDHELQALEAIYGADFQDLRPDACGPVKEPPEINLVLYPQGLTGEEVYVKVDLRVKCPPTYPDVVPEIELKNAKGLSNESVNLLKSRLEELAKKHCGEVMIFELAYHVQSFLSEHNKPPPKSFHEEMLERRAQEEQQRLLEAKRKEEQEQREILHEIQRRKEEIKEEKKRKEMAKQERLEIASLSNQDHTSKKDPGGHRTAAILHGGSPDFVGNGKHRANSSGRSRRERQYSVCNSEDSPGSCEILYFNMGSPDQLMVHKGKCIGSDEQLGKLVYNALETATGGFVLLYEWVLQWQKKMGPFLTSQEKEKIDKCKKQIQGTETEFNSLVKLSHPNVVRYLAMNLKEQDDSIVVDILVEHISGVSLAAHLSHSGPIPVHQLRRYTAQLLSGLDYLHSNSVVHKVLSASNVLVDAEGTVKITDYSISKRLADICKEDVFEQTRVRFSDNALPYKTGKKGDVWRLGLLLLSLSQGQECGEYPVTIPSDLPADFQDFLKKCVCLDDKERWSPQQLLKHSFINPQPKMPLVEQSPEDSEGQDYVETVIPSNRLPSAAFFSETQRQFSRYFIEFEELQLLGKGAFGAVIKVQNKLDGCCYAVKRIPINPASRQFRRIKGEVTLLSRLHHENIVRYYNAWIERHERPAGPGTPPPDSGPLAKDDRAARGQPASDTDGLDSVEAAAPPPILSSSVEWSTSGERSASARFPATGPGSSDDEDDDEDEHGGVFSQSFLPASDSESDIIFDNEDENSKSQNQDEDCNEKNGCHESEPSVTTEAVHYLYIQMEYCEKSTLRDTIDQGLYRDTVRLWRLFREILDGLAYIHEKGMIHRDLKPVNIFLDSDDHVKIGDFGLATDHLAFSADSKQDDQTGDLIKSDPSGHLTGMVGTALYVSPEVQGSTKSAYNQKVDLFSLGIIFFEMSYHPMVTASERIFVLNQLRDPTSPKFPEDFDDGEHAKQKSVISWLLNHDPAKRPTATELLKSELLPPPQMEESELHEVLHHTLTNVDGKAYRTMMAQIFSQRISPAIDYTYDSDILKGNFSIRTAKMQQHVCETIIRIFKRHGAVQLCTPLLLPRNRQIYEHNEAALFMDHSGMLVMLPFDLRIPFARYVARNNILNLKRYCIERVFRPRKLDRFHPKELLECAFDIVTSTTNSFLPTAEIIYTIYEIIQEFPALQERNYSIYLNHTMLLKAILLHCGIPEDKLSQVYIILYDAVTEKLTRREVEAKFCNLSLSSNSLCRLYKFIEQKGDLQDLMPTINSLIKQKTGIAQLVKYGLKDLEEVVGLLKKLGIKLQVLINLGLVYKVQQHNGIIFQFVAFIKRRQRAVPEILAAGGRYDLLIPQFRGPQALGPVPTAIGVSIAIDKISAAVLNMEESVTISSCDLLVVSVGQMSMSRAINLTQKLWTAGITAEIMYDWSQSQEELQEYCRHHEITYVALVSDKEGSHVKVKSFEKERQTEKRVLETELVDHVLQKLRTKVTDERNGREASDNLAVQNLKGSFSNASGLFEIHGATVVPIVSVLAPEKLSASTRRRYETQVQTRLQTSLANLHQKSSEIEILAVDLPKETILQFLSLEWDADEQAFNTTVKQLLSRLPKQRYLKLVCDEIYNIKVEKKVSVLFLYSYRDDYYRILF

| SMILES | pIC50 [1] | pIC50 [2] |
| --- | --- | --- |
| CC(C)OCCNC(=O)[C@@H]1CC[C@@H](Nc2ncc3c(Br)nn(-c4ccc5ncccc5c4)c3n2)C1 [(1R,3R)-3-((3-bromo-1-(quinolin-6-yl)-1H-pyrazolo[3,4-d]pyrimidin-6-yl)amino)-N-(2-isopropoxyethyl)cyclopentane-1-carboxamide] | 6.30 to 6.70 | – |
| CNC(=O)[C@]1(C)CC[C@@H](Nc2ncc3c(Br)nn(-c4cc(N)c5ncccc5c4)c3n2)C1 [(1R,3R)-3-[[1-(8-amino-6-quinolyl)-3-bromo-pyrazolo[3,4-d]pyrimidin-6-yl]amino]-N,1-dimethyl-cyclopentane-carboxamide] | 6.70 to 7.60 | – |
| CNC(=O)[C@]1(C)CC[C@@H](Nc2ncc3c(Br)nn(-c4ccc(-c5nnc(C)s5)c(CC(C)O)c4)c3n2)C1 (stereo partly drawn) [(1R,3R)-3-[[3-bromo-1-[3-(2-hydroxypropyl)-4-(5-methyl-1,3,4-thiadiazol-2-yl)phenyl]pyrazolo[3,4-d]pyrimidin-6-yl]amino]-N,1-dimethyl-cyclopentanecarboxamide] | 6.70 to 7.60 | – |
| CNC(=O)[C@]1(C)CC[C@@H](Nc2ncc3c(Br)nn(-c4ccc5nnccc5c4)c3n2)C1 [Example 42, (1R,3R)-3-((3-bromo-1-(cinnolin-6-yl)-1H-pyrazolo[3,4-d]pyrimidin-6-yl)amino)-N,1-dimethylcyclopentane-1-carboxamide; 2,2,2-trifluoroacetic acid] | – | > 7.60 |
| CNC(=O)[C@]1(C)CC[C@@H](Nc2ncc3c(Br)nn(-c4ccc(C#N)c(OCCO)c4)c3n2)C1 [(1R,3R)-3-[[3-bromo-1-[4-cyano-3-(2-hydroxyethoxy)phenyl]pyrazolo[3,4-d]pyrimidin-6-yl]amino]-N,1-dimethyl-cyclopentanecarboxamide] | 6.70 to 7.60 | – |
| CNC(=O)C1(C)CC[C@@H](Nc2ncc3c(Br)nn(-c4cc(Cl)cc(CO)c4)c3n2)C1 (mixture of isomers) [Example 17, (3R)-3-((3-bromo-1-(3-chloro-5-(hydroxymethyl)phenyl)-1H-pyrazolo[3,4-d]pyrimidin-6-yl)amino)-N,1-dimethylcyclopentane-1-carboxamide] | – | 6.70 to 7.60 |
| CNC(=O)[C@]1(C)CC[C@@H](Nc2ncc3c(Br)nn(-c4ccc5c(c4)CCN(S(C)(=O)=O)C5)c3n2)C1 [(1R,3R)-3-[[3-bromo-1-(2-methylsulfonyl-3,4-dihydro-1H-isoquinolin-6-yl)pyrazolo [3,4-d]pyrimidin-6-yl]amino]-N,1-dimethyl-cyclopentanecarboxamide] | 6.70 to 7.60 | – |
| Cc1nnc(-c2ccc(-n3nc(Br)c4cnc(N[C@@H]5CC[C@@]6(CCNC6=O)C5)nc43)cc2)s1 | 6.70 to 7.60 | – |
| CNC(=O)[C@]1([C@H](C)C#N)CC[C@@H](Nc2ncc3c(Br)nn(-c4ccc(-c5nnc(C)s5)cc4)c3n2)C1 [(1R,3R)-3-[[3-bromo-1-[4-(5-methyl-1,3,4-thiadiazol-2-yl)phenyl]pyrazolo [3,4-d]pyrimidin-6-yl]amino]-1-[(1S)-1-cyanoethyl]-N-methyl-cyclopentane-carboxamide] | 6.70 to 7.60 | – |
| CNC(=O)[C@]1(C)CC[C@@H](Nc2ncc3c(Br)nn(-c4cc(Cl)cc(C5CNC(=O)CO5)c4)c3n2)C1 (stereo partly drawn) [(1R,3R)-3-[[3-bromo-1-[3-chloro-5-(5-oxomorpholin-2-yl)phenyl]pyrazolo [3,4-d]pyrimidin-6-yl]amino]-N,1-dimethyl-cyclopentanecarboxamide] | 6.70 to 7.60 | – |
| N#Cc1cc(-n2nc(Br)c3cnc(N[C@@H]4CC[C@@H](C(=O)N5CCN(C(=O)C6CC6)CC5)C4)nc32)cc2cccnc12 [6-(3-bromo-6-(((1R,3R)-3-(4-(cyclopropanecarbonyl)piperazine-1-carbonyl)cyclopentyl)amino)-1H-pyrazolo [3,4-d]pyrimidin-1-yl)quinoline-8-carbonitrile] | 6.70 to 7.60 | – |
| CNC(=O)[C@]1(C)CC[C@@H](Nc2ncc3c(Br)nn(-c4cc(Cl)cc([C@H](C)N)c4)c3n2)C1 [Example 64, (1R,3R)-3-((1-(3-((S)-1-aminoethyl)-5-chlorophenyl)-3-bromo-1H-pyrazolo[3,4-d]pyrimidin-6-yl)amino)-N,1-dimethylcyclopentane-1-carboxamide] | – | > 7.60 |
| O=S(=O)([C@@H]1CC[C@@H](Nc2ncc3c(Br)nn(-c4ccc5ncccc5c4)c3n2)C1)N1CCOCC1 [3-bromo-N-((1R,3R)-3-(morpholinosulfonyl)cyclopentyl)-1-(quinolin-6-yl)-1H-pyrazolo [3,4-d]pyrimidin-6-amine] | 6.30 to 6.70 | – |
| C[C@H](N)c1cc(Cl)cc(-n2nc(Br)c3cnc(N[C@@H]4CCC5(CC(=O)N(C)C5=O)C4)nc32)c1 (stereo partly shown) | 6.70 to 7.60 | – |
| CN1CCN(C(=O)[C@@H]2CC[C@@H](Nc3ncc4c(Br)nn(-c5ccc(-c6cccnc6)c(F)c5)c4n3)C2)CC1=O [Example 27, 4-((1R,3R)-3-((3-bromo-1-(3-fluoro-4-(pyridin-3-yl)phenyl)-1H-pyrazolo[3,4-d]pyrimidin-6-yl)amino)cyclopentane-1-carbonyl)-1-methylpiperazin-2-one] | – | 6.00 to 6.30 |
| CNC(=O)[C@]1(CCOC)CC[C@@H](Nc2ncc3c(Br)nn(-c4ccc(-c5nnc(C)s5)cc4)c3n2)C1 | 6.70 to 7.60 | – |

| SMILES | pIC50 [1] | pIC50 [2] |
| --- | --- | --- |
| O=C(N[C@@H]1CCNC[C@@H]1F)[C@@H]1CC[C@@H](Nc2ncc3c(Br)nn(-c4cc(F)c5ncccc5c4)c3n2)C1 [(1R,3R)-3-((3-bromo-1-(8-fluoroquinolin-6-yl)-1H-pyrazolo[3,4-d]pyrimidin-6-yl)amino)-N-((3S,4R)-3-fluoropiperidin-4-yl)cyclo-pentane-1-carboxamide] | > 7.60 | – |
| Cc1nnc(-c2ccc(-n3nc(Br)c4cnc(N[C@@H]5CC[C@@](C)(C(N)=O)C5)nc43)cc2)s1 [Example 60, (1R,3R)-3-((3-bromo-1-(4-(5-methyl-1,3,4-thiadiazol-2-yl)phenyl)-1H-pyrazolo[3,4-d]pyrimidin-6-yl)amino)-1-methylcyclopentane-1-carboxamide] | – | 6.70 to 7.60 |
| CNC(=O)[C@]1(C)CC[C@@H](Nc2ncc3c(Br)nn(-c4cccc(CCS(C)(=O)=O)c4)c3n2)C1 [(1R,3R)-3-[[3-bromo-1-[3-(2-methyl-sulfonylethyl)phenyl]pyrazolo[3,4-d]pyrimidin-6-yl]amino]-N,1-dimethyl-cyclopentanecarboxamide] | 6.70 to 7.60 | – |
| CNC(=O)[C@]1(C)CC[C@@H](Nc2ncc3c(Br)nn(-c4cncc(C#N)c4)c3n2)C1 [(1R,3R)-3-[[3-bromo-1-(5-cyano-3-pyridyl)pyrazolo[3,4-d]pyrimidin-6-yl]amino]-N,1-dimethyl-cyclopentane-carboxamide] | 6.70 to 7.60 | – |
| CNC(=O)[C@]1(C)CC[C@@H](Nc2ncc3c(Br)nn(-c4cc(C#N)c5c(c4)CCO5)c3n2)C1 [Example 50, (1R,3R)-3-((3-bromo-1-(7-cyano-2,3-dihydrobenzofuran-5-yl)-lH-pyrazolo[3,4-d]pyrimidin-6-yl)amino)-N,1-dimethylcyclopentane-1-carboxamide; 2,2,2-trifluoroacetic acid] | – | 6.70 to 7.60 |
| CNC(=O)[C@]1(C)CC[C@@H](Nc2ncc3c(Br)nn(-c4cc(C5CCCO5)c5ncccc5c4)c3n2)C1 (stereo partly drawn) [(1R,3R)-3-[[3-bromo-1-(8-tetrahydrofuran-2-yl-6-quinolyl)pyrazolo[3,4-d]pyrimidin-6-yl]amino]-N,1-dimethyl-cyclopentane-carboxamide] | 6.70 to 7.60 | – |
| C[C@@H]1COCCN1C(=O)[C@@H]1CC[C@@H](Nc2ncc3c(Br)nn(-c4ccc5ncccc5c4)c3n2)C1 [((1R,3R)-3-((3-bromo-1-(quinolin-6-yl)-1H-pyrazolo[3,4-d]pyrimidin-6-yl)amino)cyclo-pentyl)((R)-3-methylmorpholino)methanone] | 6.70 to 7.60 | – |
| CNC(=O)[C@]1(C)CC[C@@H](Nc2ncc3c(Br)nn(-c4ccc(-c5nnc(C)s5)c(CCCN)c4)c3n2)C1 [(1R,3R)-3-[[1-[3-(3-aminopropyl)-4-(5-methyl-1,3,4-thiadiazol-2-yl)phenyl]-3-bromopyrazolo[3,4-d]pyrimidin-6-yl]amino]-N,1-dimethyl-cyclopentanecarboxamide] | 6.70 to 7.60 | – |
| CNC(=O)[C@]1(C)CCC(Nc2ncc3c(Br)nn(-c4ccc5c(=O)[nH]ccc5c4)c3n2)C1 (stereo partly drawn) [(1R)-3-[[3-bromo-1-(1-oxo-2H-isoquinolin-6-yl)pyrazolo[3,4-d]pyrimidin-6-yl]amino]-N,1-dimethyl-cyclopentanecarboxamide] | 6.70 to 7.60 | – |
| CNC(=O)[C@]1(C)CC[C@@H](Nc2ncc3c(Br)nn(-c4ccc5c(c4)CCN(C(=O)C4CNC4)C5)c3n2)C1 [(1R,3R)-3-[[1-[2-(azetidine-3-carbonyl)-3,4-dihydro-1H-isoquinolin-6-yl]-3-bromo-pyrazolo[3,4-d]pyrimidin-6-yl]amino]-N,1-dimethyl-cyclopentanecarboxamide] | 6.70 to 7.60 | – |
| CNC(=O)[C@]1(C)CC[C@@H](Nc2ncc3c(Br)nn(-c4ccc(-c5noc(C)n5)cc4)c3n2)C1 [(1R,3R)-3-[[3-bromo-1-[4-(5-methyl-1,2,4-oxadiazol-3-yl)phenyl]pyrazolo [3,4-d]pyrimidin-6-yl]amino]-N,1-dimethyl-cyclopentanecarboxamide] | 6.70 to 7.60 | – |
| CNC(=O)[C@]1(C)CC[C@@H](Nc2ncc3c(Br)nn(-c4ccc5nc(N(C)C)ncc5c4)c3n2)C1 | 6.70 to 7.60 | – |
| CNC(=O)[C@]1(C)CC[C@@H](Nc2ncc3c(Br)nn(-c4ccc(-c5ncco5)c(OCCO)c4)c3n2)C1 [(1R,3R)-3-[[3-bromo-1-[3-(2-hydroxy-ethoxy)-4-oxazol-2-yl-phenyl]pyrazolo [3,4-d]pyrimidin-6-yl]amino]-N,1-dimethyl-cyclopentanecarboxamide] | > 7.60 | – |
| Cn1ccnc1[C@@H]1CC[C@@H](Nc2ncc3c(Br)nn(-c4ccc5ncccc5c4)c3n2)C1 (relative stereo) [3-bromo-N-(trans-3-(1-methyl-1H-imidazol-2-yl)cyclopentyl)-1-(quinolin-6-yl)-1H-pyrazolo[3,4-d]pyrimidin-6-amine] | 6.70 to 7.60 | – |
| CC(C)(CN1CCCC1)NC(=O)[C@@H]1CC[C@@H](Nc2ncc3c(Br)nn(-c4ccc5ncccc5c4)c3n2)C1 | 6.70 to 7.60 | – |

From US11046699B2, “Pyrazolo-pyrimidin-amino-cycloalkyl compounds and their therapeutic uses” (RAPT THERAPEUTICS, INC., priority 2018, dated 2021)
